Reference: patent publication US9265253B2, “Use of macrocyclic picolinamides as fungicides” (DOW AGROSCIENCES LLC, priority 2013, dated 2016)

Columns and labels:
Format in all cases: in vivo
Cercospora beticola = experiment: Leaf Spot of Sugar Beets (CERCBE) disease control; details: 1 Day Protectant, sugar beet; for pest or weed control at 100 ppm: Cercospora beticola, topical, 24 h, read-out: Disease Control CERCBE 1 DP
Procedure: Technical grades of materials were dissolved in acetone, which were then mixed with nine volumes of water containing 110 ppm Triton X-100. The fungicide solutions were applied onto wheat seedlings using an automated booth sprayer to run-off. All sprayed plants were allowed to air dry prior to further handling. All fungicides were evaluated using the aforementioned method for their activity vs. all target diseases. Wheat leaf blotch and brown rust activity were also evaluated using track spray applications, in which case the fungicides were formulated as EC formulations, containing 0.1% Trycol 5941 in the spray solutions. Wheat plants (variety Yuma) were grown from seed in a greenhouse in 50% mineral soil/50% soil-less Metro mix until the first leaf was fully emerged, with 7-10 seedlings per pot. These plants were inoculated with an aqueous spore suspension of Septoria tritici either prior to or after fungicide treatments. After inoculation the plants were kept in 100% relative humidity (one day in a dark dew chamber followed by two to three days in a lighted dew chamber at 20° C.) to permit spores to germinate and infect the leaf. The plants were then transferred to a greenhouse set at 20° C. for disease to develop. When disease symptoms were fully expressed on the 1st leaves of untreated plants, infection levels were assessed on a scale of 0 to 100 percent disease severity. Percent disease control was calculated using the ratio of disease severity on treated plants relative to untreated plants. Sugar beet plants (variety HH88) were grown in soil-less Metro mix and trimmed regularly to maintain a uniform plant size prior to test. Plants were inoculated with a spore suspension 24 hr after fungicide treatments. Inoculated plants were kept in a dew chamber at 22° C. for 48 hr then incubated in a greenhouse set at 24° C. under a clear plastic hood with bottom ventilation until disease symptoms were fully expressed. Fungicide formulation, application and disease assessment on the sprayed leaves followed the procedures as described in the Example A.

[1] = tested on: Blumeria graminis f. sp. hordei; Synonym: Erysiphe graminis f. sp. hordei; experiment: Barley Powdery Mildew (ERYSGH) disease control; details: 1 Day Protectant; for pest or weed control at 100 ppm: Blumeria graminis, 24 h, read-out: Disease Control ERYSGH 1 DP; for Disease Control ERYSGH 1 DP: 100 ppm
Procedure: Technical grades of materials were dissolved in acetone, which were then mixed with nine volumes of water containing 110 ppm Triton X-100. The fungicide solutions were applied onto wheat seedlings using an automated booth sprayer to run-off. All sprayed plants were allowed to air dry prior to further handling. All fungicides were evaluated using the aforementioned method for their activity vs. all target diseases. Wheat leaf blotch and brown rust activity were also evaluated using track spray applications, in which case the fungicides were formulated as EC formulations, containing 0.1% Trycol 5941 in the spray solutions. Wheat plants (variety Yuma) were grown from seed in a greenhouse in 50% mineral soil/50% soil-less Metro mix until the first leaf was fully emerged, with 7-10 seedlings per pot. These plants were inoculated with an aqueous spore suspension of Septoria tritici either prior to or after fungicide treatments. After inoculation the plants were kept in 100% relative humidity (one day in a dark dew chamber followed by two to three days in a lighted dew chamber at 20° C.) to permit spores to germinate and infect the leaf. The plants were then transferred to a greenhouse set at 20° C. for disease to develop. When disease symptoms were fully expressed on the 1st leaves of untreated plants, infection levels were assessed on a scale of 0 to 100 percent disease severity. Percent disease control was calculated using the ratio of disease severity on treated plants relative to untreated plants. Barley seedlings (variety Harrington) were propagated in soil-less Metro mix, with each pot having 8 to 12 plants, and used in the test when first leaf was fully emerged. Test plants were inoculated by dusting with infected stock plants 24 hr after fungicide treatments. After inoculation the plants were kept in a greenhouse set at 20° C. for disease to develop. Fungicide formulation, application and disease assessment on the sprayed leaves followed the procedures as described in the Example A.

[2] = tested on: Glomerella lagenarium; Anamorph: Colletotrichum lagenarium; experiment: Cucumber Anthracnose (COLLLA) disease control; details: 1 Day Protectant; for pest or weed control at 100 ppm: Colletotrichum orbiculare, topical, 24 h, read-out: Disease Control COLLLA 1 DP
Procedure: Technical grades of materials were dissolved in acetone, which were then mixed with nine volumes of water containing 110 ppm Triton X-100. The fungicide solutions were applied onto wheat seedlings using an automated booth sprayer to run-off. All sprayed plants were allowed to air dry prior to further handling. All fungicides were evaluated using the aforementioned method for their activity vs. all target diseases. Wheat leaf blotch and brown rust activity were also evaluated using track spray applications, in which case the fungicides were formulated as EC formulations, containing 0.1% Trycol 5941 in the spray solutions. Wheat plants (variety Yuma) were grown from seed in a greenhouse in 50% mineral soil/50% soil-less Metro mix until the first leaf was fully emerged, with 7-10 seedlings per pot. These plants were inoculated with an aqueous spore suspension of Septoria tritici either prior to or after fungicide treatments. After inoculation the plants were kept in 100% relative humidity (one day in a dark dew chamber followed by two to three days in a lighted dew chamber at 20° C.) to permit spores to germinate and infect the leaf. The plants were then transferred to a greenhouse set at 20° C. for disease to develop. When disease symptoms were fully expressed on the 1st leaves of untreated plants, infection levels were assessed on a scale of 0 to 100 percent disease severity. Percent disease control was calculated using the ratio of disease severity on treated plants relative to untreated plants. Cucumber seedlings (variety Bush Pickle) were propagated in soil-less Metro mix, with each pot having one plant, and used in the test when 12 to 14 days old. Test plants were inoculated with an aqueous spore suspension of Colletotrichum lagenarium 24 hr after fungicide treatments. After inoculation the plants were kept in a dew room at 22° C. with 100% relative humidity for 48 hr to permit spores to germinate and infect the leaf. The plants were then transferred to a growth room set at 22° C. for disease to develop. Fungicide formulation, application and disease assessment on the sprayed leaves followed the procedures as described in the Example A.

CCCO[C@@H]1[C@@H](CCC(C)C)CCC[C@H](NC(=O)c2nccc(OC)c2OC(C)=O)C(=O)O[C@H]1C [Compound F64]
pest or weed control at 100 ppm (Cercospora beticola): 80 to 100%
pest or weed control at 100 ppm [1]: 80 to 100%
pest or weed control at 100 ppm [2]: 80 to 100%

COc1ccnc(C(=O)N[C@H]2CCC[C@H](Cc3ccc(F)cc3)[C@@H](OCC3CC3)[C@H](C)OC2=O)c1OC(C)=O [Compound F67]
pest or weed control at 100 ppm (Cercospora beticola): 80 to 100%
pest or weed control at 100 ppm [1]: 80 to 100%
pest or weed control at 100 ppm [2]: 80 to 100%

COc1ccnc(C(=O)N[C@H]2CCC[C@H](Cc3ccccc3)[C@@H](OCC(C)C)[C@H](C)OC2=O)c1OC(C)=O [Compound F70]
pest or weed control at 100 ppm (Cercospora beticola): 80 to 100%
pest or weed control at 100 ppm [1]: 80 to 100%
pest or weed control at 100 ppm [2]: 80 to 100%

COCC[C@H]1CCC[C@H](NC(=O)c2nccc(OC)c2OC(C)=O)C(=O)O[C@@H](C)[C@@H]1Oc1ccccc1 [Compound F78]
pest or weed control at 100 ppm (Cercospora beticola): 80 to 100%
pest or weed control at 100 ppm [1]: 0 to 80%
pest or weed control at 100 ppm [2]: 80 to 100%

COc1ccnc(C(=O)N[C@H]2CCC[C@H](CCBr)[C@@H](Oc3ccccc3)[C@H](C)OC2=O)c1OC(C)=O [Compound F80]
pest or weed control at 100 ppm (Cercospora beticola): 80 to 100%
pest or weed control at 100 ppm [1]: 0 to 80%
pest or weed control at 100 ppm [2]: 80 to 100%

CC[C@H]1CCC[C@H](NC(=O)c2nccc(OC)c2OC(C)=O)C(=O)O[C@@H](C)[C@@H]1Oc1ccccc1 [Compound F81]
pest or weed control at 100 ppm (Cercospora beticola): 80 to 100%
pest or weed control at 100 ppm [1]: 0 to 80%
pest or weed control at 100 ppm [2]: 80 to 100%

COc1ccnc(C(=O)N[C@H]2CCC[C@H](CC(F)F)[C@@H](Oc3ccccc3)[C@H](C)OC2=O)c1OC(C)=O [Compound F82]
pest or weed control at 100 ppm (Cercospora beticola): 80 to 100%
pest or weed control at 100 ppm [1]: 0 to 80%
pest or weed control at 100 ppm [2]: 80 to 100%

C=C[C@H]1CCC[C@H](NC(=O)c2nccc(OC)c2OC(C)=O)C(=O)O[C@@H](C)[C@@H]1Oc1ccccc1 [Compound F86]
pest or weed control at 100 ppm (Cercospora beticola): 80 to 100%
pest or weed control at 100 ppm [1]: 0 to 80%
pest or weed control at 100 ppm [2]: 80 to 100%

CCO[C@@H]1[C@@H](Cc2ccccc2)CCC[C@H](NC(=O)c2nccc(OC)c2OC(C)=O)C(=O)O[C@H]1C [Compound F87]
pest or weed control at 100 ppm (Cercospora beticola): 80 to 100%
pest or weed control at 100 ppm [1]: 80 to 100%
pest or weed control at 100 ppm [2]: 80 to 100%

CCCO[C@@H]1[C@@H](Cc2ccccc2)CCC[C@H](NC(=O)c2nccc(OC)c2OC(C)=O)C(=O)O[C@H]1C [Compound F88]
pest or weed control at 100 ppm (Cercospora beticola): 80 to 100%
pest or weed control at 100 ppm [1]: 80 to 100%
pest or weed control at 100 ppm [2]: 80 to 100%

CCCO[C@@H]1[C@@H](CCC(C)C)CCC[C@H](NC(=O)c2nccc(OC)c2OCOC(C)=O)C(=O)O[C@H]1C [Compound F92]
pest or weed control at 100 ppm (Cercospora beticola): 80 to 100%
pest or weed control at 100 ppm [1]: 0 to 80%
pest or weed control at 100 ppm [2]: 80 to 100%

COc1ccnc(C(=O)N[C@H]2CCC[C@H](Cc3ccc(F)cc3)[C@@H](OCC3CC3)[C@H](C)OC2=O)c1OCOC(C)=O [Compound F96]
pest or weed control at 100 ppm (Cercospora beticola): 80 to 100%
Disease Control ERYSGH 1 DP [1]: B (More than 0-Less than 80)
pest or weed control at 100 ppm [2]: 80 to 100%

COc1ccnc(C(=O)N[C@H]2CCC[C@H](Cc3ccc(F)cc3)[C@@H](OCC3CC3)[C@H](C)OC2=O)c1OCOC(C)=O [Compound F98]
Disease Control CERCBE 1 DP (Cercospora beticola; 100 ppm): A (80-100)
Disease Control ERYSGH 1 DP [1]: A (80-100)
Disease Control COLLLA 1 DP ([2]; 100 ppm): A (80-100)

CCCO[C@@H]1[C@@H](Cc2ccc(F)cc2)CCC[C@H](NC(=O)c2nccc(OC)c2OCOC(C)=O)C(=O)O[C@H]1C [Compound F101]
pest or weed control at 100 ppm (Cercospora beticola): 80 to 100%
pest or weed control at 100 ppm [1]: 80 to 100%
pest or weed control at 100 ppm [2]: 80 to 100%

COc1ccnc(C(=O)N[C@H]2CCC[C@H](Cc3ccc(F)cc3)[C@@H](OCC(C)C)[C@H](C)OC2=O)c1OCOC(C)=O [Compound F102]
pest or weed control at 100 ppm [1]: 0 to 80%
pest or weed control at 100 ppm [2]: 80 to 100%

COc1ccnc(C(=O)N[C@H]2CCC[C@H](Cc3ccccc3)[C@@H](OCC(C)C)[C@H](C)OC2=O)c1OCOC(C)=O [Compound F106]
pest or weed control at 100 ppm (Cercospora beticola): 80 to 100%
pest or weed control at 100 ppm [1]: 80 to 100%
pest or weed control at 100 ppm [2]: 80 to 100%

COc1ccnc(C(=O)N[C@H]2CCC[C@H](Cc3ccccc3)[C@@H](OCC3CC3)[C@H](C)OC2=O)c1OCOC(C)=O [Compound F107]
pest or weed control at 100 ppm (Cercospora beticola): 80 to 100%
pest or weed control at 100 ppm [1]: 80 to 100%
pest or weed control at 100 ppm [2]: 80 to 100%

COc1ccnc(C(=O)N[C@H]2CCC[C@H](Cc3ccccc3)[C@@H](OC3CCCC3)[C@H](C)OC2=O)c1OCOC(C)=O [Compound F110]
pest or weed control at 100 ppm [1]: 80 to 100%

COc1ccnc(C(=O)N[C@H]2CCC[C@H](CC3CCCCC3)[C@@H](OCC(C)C)[C@H](C)OC2=O)c1OCOC(C)=O [Compound F113]
pest or weed control at 100 ppm (Cercospora beticola): 80 to 100%
pest or weed control at 100 ppm [1]: 80 to 100%

COc1ccc(C[C@H]2CCC[C@H](NC(=O)c3nccc(OC)c3OCOC(C)=O)C(=O)O[C@@H](C)[C@@H]2Oc2ccccc2)cc1 [Compound F114]
pest or weed control at 100 ppm (Cercospora beticola): 80 to 100%
pest or weed control at 100 ppm [2]: 80 to 100%

COc1ccc(C[C@H]2CCC[C@H](NC(=O)c3nccc(OC)c3OCOC(C)=O)C(=O)O[C@@H](C)[C@@H]2OCC(C)C)cc1 [Compound F118]
pest or weed control at 100 ppm (Cercospora beticola): 80 to 100%
pest or weed control at 100 ppm [2]: 80 to 100%

CCCO[C@@H]1[C@@H](Cc2ccc(OC)cc2)CCC[C@H](NC(=O)c2nccc(OC)c2OCOC(C)=O)C(=O)O[C@H]1C [Compound F119]
pest or weed control at 100 ppm (Cercospora beticola): 80 to 100%
pest or weed control at 100 ppm [2]: 80 to 100%

COc1ccnc(C(=O)N[C@H]2CCC[C@H](Cc3ccc(C)cc3)[C@@H](OCC(C)C)[C@H](C)OC2=O)c1OCOC(C)=O [Compound F126]
pest or weed control at 100 ppm (Cercospora beticola): 80 to 100%
pest or weed control at 100 ppm [2]: 80 to 100%

COc1ccnc(C(=O)N[C@H]2CCC[C@H](Cc3ccc(F)cc3F)[C@@H](OC(=O)c3ccco3)[C@H](C)OC2=O)c1OCOC(C)=O [Compound F144]
pest or weed control at 100 ppm (Cercospora beticola): 0 to 80%
pest or weed control at 100 ppm [2]: 80 to 100%

COc1ccnc(C(=O)N[C@H]2CCC[C@H](Cc3ccc(F)cc3F)[C@@H](OC(=O)c3ccco3)[C@H](C)OC2=O)c1OCOC(=O)C(C)C [Compound F157]
pest or weed control at 100 ppm (Cercospora beticola): 80 to 100%
pest or weed control at 100 ppm [2]: 80 to 100%

CCOCC(=O)OCOc1c(OC)ccnc1C(=O)N[C@H]1CCC[C@H](Cc2ccc(F)cc2)[C@@H](OCC(C)C)[C@H](C)OC1=O [Compound F168]
pest or weed control at 100 ppm [1]: 80 to 100%
pest or weed control at 100 ppm [2]: 80 to 100%

CCOCC(=O)OCOc1c(OC)ccnc1C(=O)N[C@H]1CCC[C@H](CC2CCCCC2)[C@@H](OCC(C)C)[C@H](C)OC1=O [Compound F175]
pest or weed control at 100 ppm (Cercospora beticola): 80 to 100%
pest or weed control at 100 ppm [1]: 80 to 100%
